Results from patent publication US10406127B2, “Solid oral formulation of fenretinide” (LAURENT PHARMACEUTICALS, priority 2014, dated 2019).
Read-outs that look alike come from different tables or passages of the source.

How the values were obtained:
[1] = fenretinide in rats; cited from earlier work
[2] = Solubility in spray-drying solvents (visually assessed); assay type: physicochemical
Description: The solubility of Fenretinide/PVP K30 40/60% w/w mixtures was first visually assessed in various ratios of ethanol/dichloromethane. Thereafter, Spray Dryed Intermediates (SDIs) were produced from Fenretinide/PVP K30 40/60% w/w mixture solubilized at 7.5% w/v in ethanol/dichloromethane 90/10 v/v (L215-01009A), 50/50 v/v (L215-01009B) and 10/90 v/v (L215-01009C) systems for a total batch size of 15 g. The solvent was evaporated using Model GA32 Yamato® Lab Spray Dryer with the following operating parameters: 1.2 mm nozzle; about 9-15 g/min feed rate; 1.5 kg/cm^2 atomization air, and 0.35-0.55 m^3/min air flow. The inlet temperature was adjusted according to the solvent system to maintain an outlet temperature between 50-65° C.
Successive amounts of Fenretinide and PVP K30 40/60% w/w were added in 200 ml of dichloromethane until saturation of the solution. At a total solid loading of 20% w/v (40 g), the addition of Fenretinide and PVP K30 was stopped due to the increase of the solution viscosity. The solution was spray dried (lot L215-01010) with the following process parameters: 11-15 g/min feed rate; 75° C. inlet temperature; 45-48° C. outlet temperature; 0.1-0.3 MPa atomization air, and 0.40 m^3/min air flow.

solubility ([2]; dichloromethane 100% with PVP K30, organic solvent or mixture, thermodynamic from solid, solubilised with PVP K30 in a ratio of 40/60 w/w, DCM 100%, read-out: solubility of Fenretinide): > 50 mg/mL | solubility ([2]; ethanol 100% with PVP K30, organic solvent or mixture, thermodynamic from solid, solubilised with PVP K30 in a ratio of 40/60 w/w, ethanol 100%, read-out: solubility of Fenretinide): ~34 mg/mL | solubility ([2]; ethanol/dichloromethane 50/50 v/v with PVP K30, organic solvent or mixture, thermodynamic from solid, solubilised with PVP K30 in a ratio of 40/60 w/w, ethanol/DCM 50/50 v/v, read-out: solubility of Fenretinide): > 50 mg/mL | solubility ([2]; mixture of methanol/dichloromethane (1:1)): very soluble | solubility ([2]; pure dichloromethane): very soluble
Compound: CC1=C(/C=C/C(C)=C/C=C/C(C)=C/C(=O)Nc2ccc(O)cc2)C(C)(C)CCC1 [Fenretinide, all-trans-N-(4-hydroxyphenyl) retinamide]
elimination half-life, literature data [1]: 7 to 10 h
